# Where two headings read alike, the source gives them in different places.
# Experiments:
# [1] = tested on: MDA-MB-231 human breast carcinoma cells; assay: MDA-MB-231 in vitro cellular proliferation inhibition (BrdU); type: cell-based; conditions: for fold less activity than 2-methoxyestradiol: MDA-MB-231 tumor cell line, compared to 2-methoxyestradiol; for antiproliferative activity in MDA-MB-231 cells, in words: breast tumor MDA-MB-231 cells
# Description: MDA-MB-231 In Vitro Cellular Proliferation Inhibition
# MDA-MB-231 Cells and Culture Conditions
# MDA-MB-231 human breast carcinoma cells were grown in DMEM containing 10% FCS (Hyclone Laboratories, Logan Utah) and supplemented with 2 mM L-Glutamine, 100 units/ml penicillin, 100 μg/ml streptomycin (Irvine Scientific, Santa Anna, Calif.).
# MDA-MB-231 cells were plated at 5000 cells/ml in 96 well plates. After allowing the cells to attach overnight, the appropriate fresh media were applied containing differing concentrations of 2-ME2 or derivatives thereof, as described below. Drug was dissolved in DMSO (Sigma, St. Louis, Mo.) and added to the wells in a volume of 200 μl. Cells were incubated for two days at 37° C.; at 32 h BrdU was added. BrdU cell proliferation assay (a nucleotide analogue with a fluorescein tag that is incorporated into DNA) was performed as described by the manufacturer (Roche). Each condition was prepared in triplicate and the experiments were carried out a minimum of two times. Results are presented and means ±SE.
# (§1) In order to assess the biological activity of modifications at position 16, the anti-proliferative activity of these analogs was evaluated on human umbilical vein endothelial cells (HUVEC) and breast carcinoma cell line, MDA-MB-231 as models for the anti-angiogenic and anti-tumor activity, respectively.
# HUVEC cells = assay: HUVEC in vitro cellular proliferation inhibition (BrdU); type: cell-based, human; conditions: for antiproliferative activity in HUVEC cells, in words: inhibition of HUVEC / endothelial cell proliferation in vitro
# Description: HUVAC In Vitro Cellular Proliferation Inhibition
# HUVAC Cells and Culture Conditions
# HUVAC Cells were Grown in EGM (Clonetics)
# HUVEC cells were plated at 5000 cells/ml in 96-well plates. After allowing the cells to attach overnight, the cells were washed with PBS and incubated in the absence of growth factor for 24 h (EBM, 2% FCS, Clonetics). Cells were treated with increasing concentrations of drug in EBM containing 2% FCS and 10 ng.ml bFGF for 48 h at 37° C. Drug preparation, volumes added and BrdU proliferation assay were performed as indicated above.
# as §1
# [2] = tested on: estrogen dependant MCF-7 cells; assay: MCF7 proliferation index (estrogenic activity); type: cell-based; conditions: measure of estrogenic activity
# Description: All of these analogs have the capacity to from a hydrogen bond with the hydroxy group at position 3 and this may be the reason for their relatively low estrogenic character compared to estradiol. Both the 2-methylhydroxy and 2-formyl derivatives had good antiproliferative activity (IC50<10 microM) in HUVEC cells, whereas the 2-acetyl had poor activity in the same assay.
# [3] = tested on: chick embryo chorioallantoic membrane; assay: chick embryo chorioallantoic membrane (CAM) assay; type: in vivo; parameters: dose or concentration left out as unconfirmed; conditions: methylcellulose disc on CAM, after 48 hours
# Description: Anti-proliferative activity is evaluated in situ by testing the ability of an improved estradiol derivative to inhibit the proliferation of new blood vessel cells (angiogenesis). A suitable assay is the chick embryo chorioallantoic membrane (CAM) assay described by Crum et al. Science 230:1375 (1985). See also, U.S. Pat. No. 5,001,116, hereby incorporated by reference, which describes the CAM assay. Briefly, fertilized chick embryos are removed from their shell on day 3 or 4, and a methylcellulose disc containing the drug is implanted on the chorioallantoic membrane. The embryos are examined 48 hours later and, if a clear avascular zone appears around the methylcellulose disc, the diameter of that zone. is measured.
# [4] = Table 2, 2-methoxyestradiol modified at position 16, two days, read-out: MDA-MB-231 IC50
# [5] = Table 2, 2-methoxyestradiol modified at position 16, 48 h, bFGF, read-out: HUVEC IC50
# [6] = Table 1, 2-modified estradiol derivatives, read-out: MDA-MB-231 (IC50 μM)
# [7] = Table 1, 2-modified estradiol derivatives, read-out: HUVEC (IC50 μM)
# [8] = text statement b78, read-out: antiproliferative activity IC50 in HUVEC cells
Compound,"IC50 [1, 4] [µM]",IC50 (HUVEC cells; [5]) [µM],MCF7 Proliferation Index [2],other results
16β-isobutyl-2-methoxyestradiol,40,7.5,,fold difference between tumor cell and endothelial cell antiproliferative activity (selectivity) ([1]; MDA-MB-231 versus HUVEC): 5 fold
C[C@]12CC[C@@H]3c4cc(CO)c(O)cc4CC[C@H]3[C@@H]1CC[C@@H]2O [2-methyl hydroxy-E2],,,7.4,"IC50 [1, 6]: > 25 µM; antiproliferative activity in MDA-MB-231 cells, in words [1]: inactive; IC50 (HUVEC cells; [7]): 10 µM; IC50 (HUVEC cells; [8]): < 10 µM"
COc1cc2c(cc1O)CC[C@@H]1[C@@H]2CC[C@]2(C)[C@@H](O)[C@@H](CN(C)C)C[C@@H]12 [16β-methyl(dimethylamine)-2-methoxyestradiol],22,9,,
CC(=O)c1cc2c(cc1O)CC[C@@H]1[C@@H]2CC[C@]2(C)[C@@H](O)CC[C@@H]12 [Example 2-acetyl-E2],,,4.4,"IC50 [1, 6]: 9 µM; antiproliferative activity in MDA-MB-231 cells, in words [1]: good activity; IC50 (HUVEC cells; [7]): 18 µM; antiproliferative activity in HUVEC cells, in words (HUVEC cells): poor activity"
CC12CCC3c4cc(C=O)c(O)cc4CCC3C1CCC2O (stereo not drawn) [Example 2-formyl-E2],,,5.4,"IC50 [1, 6]: > 25 µM; antiproliferative activity in MDA-MB-231 cells, in words [1]: inactive; IC50 (HUVEC cells; [7]): 8 µM; IC50 (HUVEC cells; [8]): < 10 µM"
"C[C@]12CC[C@@H]3c4ccc(O)cc4CC[C@H]3[C@@H]1CC[C@@H]2O [Example E2, estradiol, reference compound]",,,13.1,
"COc1cc2c(cc1O)CC[C@@H]1[C@@H]2CC[C@]2(C)[C@@H](O)[C@@H](CO)C[C@@H]12 [methanol (—CH2OH), 16β-methanol-2-methoxyestradiol]",22,15,,
"COc1cc2c(cc1O)CC[C@@H]1[C@@H]2CC[C@]2(C)[C@@H](O)[C@@H](C)C[C@@H]12 [methyl, 16β-methyl-2methoxyestradiol]",5,1.3,,fold less activity than 2-methoxyestradiol [1]: about 5 fold
"CCCC[C@H]1C[C@H]2[C@@H]3CCc4cc(O)c(OC)cc4[C@H]3CC[C@]2(C)[C@H]1O [n-butyl, 16β-n-butyl-2-methoxyestradiol]",39,9,,

# More lines, main results first:
"IC50 [1, 4] [µM]",Compound,IC50 (HUVEC cells; [5]) [µM],MCF7 Proliferation Index [2],other results
3,"CCC1C[C@H]2[C@@H]3CCc4cc(O)c(OC)cc4[C@H]3CC[C@]2(C)[C@H]1O (mixture of isomers) [ethyl (—CH2CH3), Racemic 16-ethyl-2-methoxyestradiol]",2,,"fold less activity than 2-methoxyestradiol [1]: ~3 fold; antiproliferative activity in HUVEC cells, in words (HUVEC cells): about equipotent to 2-methoxyestradiol"
0.9,"COc1cc2c(cc1O)CC[C@@H]1[C@@H]2CC[C@]2(C)[C@@H](O)CC[C@@H]12 [Example 2ME2, 2-Methoxyestradiol, reference compound]",,4.4,"IC50 [1, 6]: 0.9 µM; inhibition of cell mitosis and growth of new blood vessels [3]: inhibit cell mitosis and the growth of new blood vessels"
< 0.5,"COc1cc2c(cc1O)CC[C@@H]1[C@@H]2CC[C@]2(C)[C@@H](O)[C@H](C)C[C@@H]12 [methyl (—CH3), 16α-methyl-2methoxyestradiol]",< 0.5,,"antiproliferative activity in MDA-MB-231 cells, in words [1]: better activity than 2-methoxyestradiol; antiproliferative activity in HUVEC cells, in words (HUVEC cells): greater activity than 2-methoxyestradiol"
> 50,"CCC[C@@H]1C[C@H]2[C@@H]3CCc4cc(O)c(OC)cc4[C@H]3CC[C@]2(C)[C@H]1O [n-propyl (—CH2CH2CH3), 16α-n-propyl-2-methoxyestradiol]",6,,"antiproliferative activity in HUVEC cells, in words (HUVEC cells): good activity"
36,"CCC[C@H]1C[C@H]2[C@@H]3CCc4cc(O)c(OC)cc4[C@H]3CC[C@]2(C)[C@H]1O [n-propyl, 16β-n-propyl-2-methoxyestradiol]",9,,
